Measured values from patent US10407407B2, “Benzoimidazole derivatives as PAD4 inhibitors” (GLAXOSMITHKLINE INTELLECTUAL PROPERTY DEVELOPMENT LIMITED, priority 2015, dated 2019).

Each compound was assayed against T1, Recombinant human PAD2 (residues 1-665) (Homo sapiens, UniProt Q9Y2J8) (assay: PAD2 enzyme assay (FLINT NH3 release, BAEE substrate)). Details: PAD2 enzyme assay above or similar assays; to assess selectivity for PAD4 over PAD2; read-out: mean pIC50 (converted).
T1 construct: Recombinant human PAD2 (residues 1-665) was expressed in baculovirus-infected Sf9 insect cells; 6His-FLAG (N); made in house; host or cells: baculovirus-infected Sf9 insect cells
Type: biochemical
Experimental: Activity of the final product was determined using a FLINT NH3 release assay.
8 μl of PAD2 enzyme diluted to an assay concentration of 30 nM in assay buffer (100 mM HEPES, 50 mM NaCl, 2 mM DTT, 7.5% glycerol and 1.5 mM CHAPS pH 8), and added to wells containing 0.1 μl of various concentrations of compound or DMSO vehicle (0.8% final) in a Greiner high volume 384 well black plate. […] The reaction was stopped after 90 mins with the addition of […] stop/detection buffer containing 50 mM EDTA, 2.6 mM phthalaldehyde and 2.6 mM DTT.

T1 sequence (Q9Y2J8 whole entry, the tested form may be a part): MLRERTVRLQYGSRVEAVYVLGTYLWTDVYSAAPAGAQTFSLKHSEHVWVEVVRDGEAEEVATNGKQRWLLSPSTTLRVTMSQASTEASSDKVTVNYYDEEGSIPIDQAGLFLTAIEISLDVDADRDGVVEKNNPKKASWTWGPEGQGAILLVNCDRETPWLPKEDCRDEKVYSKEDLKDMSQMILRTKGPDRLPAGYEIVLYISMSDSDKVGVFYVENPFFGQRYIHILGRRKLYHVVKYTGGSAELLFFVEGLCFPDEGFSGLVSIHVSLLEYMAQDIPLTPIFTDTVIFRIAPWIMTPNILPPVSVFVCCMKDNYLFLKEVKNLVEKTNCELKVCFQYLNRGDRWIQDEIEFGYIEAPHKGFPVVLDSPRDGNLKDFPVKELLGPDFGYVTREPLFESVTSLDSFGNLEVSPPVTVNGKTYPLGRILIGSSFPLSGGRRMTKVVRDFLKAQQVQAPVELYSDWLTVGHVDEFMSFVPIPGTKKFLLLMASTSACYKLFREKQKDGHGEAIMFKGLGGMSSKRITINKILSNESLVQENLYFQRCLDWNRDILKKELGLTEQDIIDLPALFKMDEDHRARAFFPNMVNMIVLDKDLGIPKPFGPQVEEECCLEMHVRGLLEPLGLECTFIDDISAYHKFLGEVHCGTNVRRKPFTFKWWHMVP

Row | IC50 | Structure (SMILES)
1 | > 79.4 µM | CCn1c(-c2nc3cc(C(=O)N4CC[C@H](OC)[C@@H](N)C4)ccc3n2C)cc2ccccc21 (racemic) [Example 51, (+/−)-((trans)-3-Amino-4-methoxypiperidin-1-yl)(2-(1-ethyl-1H-indol-2-yl)-1-methyl-1H-benzo[d]imidazol-5-yl)methanone]
2 | > 79.4 µM | CCn1c(-c2nc3cc(C(=O)N4C[C@@H](N)CC[C@H]4C)ccc3n2C)cc2ccccc21 (single isomer, unassigned) [Example 54, cis-(5-Amino-2-methylpiperidin-1-yl)(2-(1-ethyl-1H-indol-2-yl)-1-methyl-1H-benzo[d]imidazol-5-yl)methanone]
3 | > 79.4 µM | CCn1c(-c2nc3cc(C(=O)N4C[C@H](C)C[C@H](N)C4)ccc3n2C)cc2ccccc21 (single isomer, unassigned) [Example 124, cis-(3-Amino-5-methylpiperidin-1-yl)(2-(1-ethyl-1H-indol-2-yl)-1-methyl-1H-benzo[d]imidazol-5-yl)methanone]
4 | ≥ 10 µM | CCn1c(-c2nc3cc(C(=O)N4CCC[C@@H](N)C4)ccc3n2C)cc2ccccc21 [Example 1a]
5 | ≥ 10 µM | CCn1c(-c2nc3cc(C(=O)N4CCC[C@@H](N)C4)ccc3n2C)cc2cccc(OC)c21 [Example 2, (3R)-1-({2-[1-ethyl-7-(methyloxy)-1H-indol-2-yl]-1-methyl-1H-benzimidazol-5-yl}carbonyl)-3-piperidinamine]
6 | ≥ 10 µM | CC(C)n1c(-c2nc3cc(C(=O)N4CCC[C@@H](N)C4)ccc3n2C)cc2ccccc21 [Example 12, (3R)-1-({1-Methyl-2-[1-(1-methylethyl)-1H-indol-2-yl]-1H-benzimidazol-5-yl}carbonyl)-3-piperidinamine]
7 | ≥ 10 µM | Cn1c(-c2cc3ccccc3n2CC2CC2)nc2cc(C(=O)N3CCC[C@@H](N)C3)ccc21 [Example 16, (3R)-1-({2-[1-(Cyclopropylmethyl)-1H-indol-2-yl]-1-methyl-1H-benzimidazol-5-yl}carbonyl)-3-piperidinamine]
8 | ≥ 10 µM | Cn1c(-c2cc3ccccc3[nH]2)nc2cc(C(=O)N3CCC[C@@H](N)C3)ccc21 [Example 18, (3R)-1-{[2-(1H-Indol-2-yl)-1-methyl-1H-benzimidazol-5-yl]carbonyl}-3-piperidinamine]
9 | ≥ 10 µM | CC(C)Cn1c(-c2nc3cc(C(=O)N4CCC[C@@H](N)C4)ccc3n2C)cc2ccccc21 [Example 19, (3R)-1-({1-Methyl-2-[1-(2-methylpropyl)-1H-indol-2-yl]-1H-benzimidazol-5-yl}carbonyl)-3-piperidinamine]
10 | ≥ 10 µM | Cn1cc(Cn2c(-c3nc4cc(C(=O)N5CCC[C@@H](N)C5)ccc4n3C)cc3ccccc32)cn1 [Example 20a, (3R)-1-[(1-methyl-2-{1-[(1-methyl-1H-pyrazol-4-yl)methyl]-1H-indol-2-yl}-1H-benzimidazol-5-yl)carbonyl]-3-piperidinamine]
11 | > 79.4 µM | COCCn1c(-c2nc3cc(C(=O)N4CCC[C@@H](N)C4)ccc3n2C)cc2ccccc21 [Example 22, (3R)-1-[(1-methyl-2-{1-[2-(methyloxy)ethyl]-1H-indol-2-yl}-1H-benzimidazol-5-yl)carbonyl]-3-piperidinamine]
12 | > 79.4 µM | Cn1c(-c2cc3ccccc3n2CCO)nc2cc(C(=O)N3CCC[C@@H](N)C3)ccc21 [Example 29, 2-[2-(5-{[(3R)-3-Amino-1-piperidinyl]carbonyl}-1-methyl-1H-benzimidazol-2-yl)-1H-indol-1-yl]ethanol]
13 | ≥ 10 µM | CCOc1ccc2cc(-c3nc4cc(C(=O)N5CCC[C@@H](N)C5)ccc4n3C)n(CC)c2c1 [Example 32, (R)-(3-Aminopiperidin-1-yl)(2-(6-ethoxy-1-ethyl-1H-indol-2-yl)-1-methyl-1H-benzo[d]imidazol-5-yl)methanone]
14 | ≥ 10 µM | CCn1c(-c2nc3cc(C(=O)N4CCC[C@@H](N)C4)cc(OC(F)(F)F)c3n2C)cc2ccccc21 [Example 34, (R)-(3-Aminopiperidin-1-yl)(2-(1-ethyl-1H-indol-2-yl)-1-methyl-7-(trifluoromethoxy)-1H-benzo[d]imidazol-5-yl)methanone]
15 | > 79.4 µM | Cn1c(-c2nc3cc(C(=O)N4CCC[C@@H](N)C4)ccc3n2C)cc2ccccc21 [Example 37, (R)-(3-Aminopiperidin-1-yl)(1-methyl-2-(1-methyl-1H-indol-2-yl)-1H-benzo[d]imidazol-5-yl)methanone]
16 | ≥ 10 µM | CCn1c(-c2nc3cc(C(=O)N4CCC[C@@H](N)C4)ccc3n2CCN)cc2ccccc21 [Example 48, (R)-(1-(2-Aminoethyl)-2-(1-ethyl-1H-indol-2-yl)-1H-benzo[d]imidazol-5-yl)(3-aminopiperidin-1-yl)methanone]
17 | ≥ 10 µM | COc1cc(C(=O)N2CC[C@@H](O)[C@@H](N)C2)cc2nc(-c3cc4ccccc4n3CC(F)(F)F)n(C)c12 [Example 58a, ((3S,4R)-3-Amino-4-hydroxypiperidin-1-yl)(7-methoxy-1-methyl-2-(1-(2,2,2-trifluoroethyl)-1H-indol-2-yl)-1H-benzo[d]imidazol-5-yl)methanone]
18 | ≥ 10 µM | COc1cc(C(=O)N2CC[C@H](O)[C@H](N)C2)cc2nc(-c3cc4ccccc4n3CC(F)(F)F)n(C)c12 [Example 59, ((3R,4S)-3-Amino-4-hydroxypiperidin-1-yl)(7-methoxy-1-methyl-2-(1-(2,2,2-trifluoroethyl)-1H-indol-2-yl)-1H-benzo[d]imidazol-5-yl)methanone]
19 | > 79.4 µM | CCn1c(-c2nc3cc(C(=O)N4CCC[C@@H](N)C4)cc(N(C)C)c3n2C)cc2ccccc21 [Example 63, (R)-(3-Aminopiperidin-1-yl)(7-(dimethylamino)-2-(1-ethyl-1H-indol-2-yl)-1-methyl-1H-benzo[d]imidazol-5-yl)methanone]
20 | > 79.4 µM | CCn1c(-c2nc3cc(C(=O)N4CC[C@@H](O)[C@@H](N)C4)cc(OC)c3n2C)cc2ccccc21 [Example 67, ((3S,4R)-3-Amino-4-hydroxypiperidin-1-yl)(2-(1-ethyl-1H-indol-2-yl)-7-methoxy-1-methyl-1H-benzo[d]imidazol-5-yl)methanone]
21 | > 79.4 µM | CCn1c(-c2nc3cc(C(=O)N4CCC[C@@H](N)C4)cc(NC)c3n2C)cc2ccccc21 [Example 68, (R)-(3-Aminopiperidin-1-yl)(2-(1-ethyl-1H-indol-2-yl)-1-methyl-7-(methylamino)-1H-benzo[d]imidazol-5-yl)methanone]
22 | > 79.4 µM | COc1cc(C(=O)N2CCC[C@@H](N)C2)cc2nc(-c3cc4ccccc4n3CC3CCOCC3)n(C)c12 [Example 70, (R)-(3-Aminopiperidin-1-yl)(7-methoxy-1-methyl-2-(1-((tetrahydro-2H-pyran-4-yl)methyl)-1H-indol-2-yl)-1H-benzo[d]imidazol-5-yl)methanone]
23 | ≥ 10 µM | COc1cc(C(=O)N2CCC[C@@H](N)C2)cc2nc(-c3cc4ccccc4n3CC#N)n(C)c12 [Example 74, (R)-2-(2-(5-(3-Aminopiperidine-1-carbonyl)-7-methoxy-1-methyl-1H-benzo[d]imidazol-2-yl)-1H-indol-1-yl)acetonitrile]
24 | ≥ 10 µM | CCc1cc(C(=O)N2CCC[C@@H](N)C2)cc2nc(-c3cc4ccccc4n3CC)n(C)c12 [Example 75, (R)-(3-Aminopiperidin-1-yl)(7-ethyl-2-(1-ethyl-1H-indol-2-yl)-1-methyl-1H-benzo[d]imidazol-5-yl)methanone]
25 | > 79.4 µM | CCn1c(-c2nc3cc(C(=O)N4CCC[C@@H](N)C4)ccc3n2CC)cc2ccccc21 [Example 95, (R)-(3-Aminopiperidin-1-yl)(1-ethyl-2-(1-ethyl-1H-indol-2-yl)-1H-benzo[d]imidazol-5-yl)methanone]
26 | > 79.4 µM | CCn1c(-c2nc3cc(C(=O)N4CCC[C@@H](N)C4)cnc3n2C)cc2ccccc21 [Example 96, (R)-(3-Aminopiperidin-1-yl)(2-(1-ethyl-1H-indol-2-yl)-3-methyl-3H-imidazo[4,5-b]pyridin-6-yl)methanone]
27 | ≥ 10 µM | CCn1c(-c2nc3cc(C(=O)N4CCC[C@@H](N)C4)cc(OCCOC)c3n2C)cc2ccccc21 [Example 111, (R)-(3-Aminopiperidin-1-yl)(2-(1-ethyl-1H-indol-2-yl)-7-(2-methoxyethoxy)-1-methyl-1H-benzo[d]imidazol-5-yl)methanone]
28 | ≥ 10 µM | CCn1c(-c2nc3cc(C(=O)N4CCC[C@@H](N)C4)cc(OCC#N)c3n2C)cc2ccccc21 [Example 113, (R)-2-((5-(3-Aminopiperidine-1-carbonyl)-2-(1-ethyl-1H-indol-2-yl)-1-methyl-1H-benzo[d]imidazol-7-yl)oxy)acetonitrile]
29 | > 79.4 µM | CCn1c(-c2nc3cc(C(=O)N4CCC[C@@H](N)C4)cc(OCC(N)=O)c3n2C)cc2ccccc21 [Example 114, (R)-2-((5-(3-Aminopiperidine-1-carbonyl)-2-(1-ethyl-1H-indol-2-yl)-1-methyl-1H-benzo[d]imidazol-7-yl)oxy)acetamide]
30 | ≥ 10 µM | CCn1c(-c2nc3cc(C(=S)N4CCC[C@@H](N)C4)ccc3n2C)cc2ccccc21 [Example 135, (R)-(3-Aminopiperidin-1-yl)(2-(1-ethyl-1H-indol-2-yl)-1-methyl-1H-benzo[d]imidazol-5-yl)methanethione]
